Columns and labels:
[1] = Inhibition of SCD in human H2009 cells non-expressing CYP4F11 assessed as reduction in cell viability incubated for 96 hrs by cell titer Glo reagent based assay
[2] = Inhibition of SCD in human NCI-H2122 cells expressing CYP4F11 assessed as reduction in cell viability incubated for 96 hrs by cell titer Glo reagent based assay
[3] = Inhibition of SCD in human NCI-H1155 cells non-expressing CYP4F11 assessed as reduction in cell viability incubated for 96 hrs by cell titer Glo reagent based assay

SMILES | IC50 [1] | IC50 [2] | IC50 [3]
O=C(Nc1nc2ccccc2[nH]1)c1ccc(C(=O)c2ccccc2)cc1 | 1.8 µM | 0.042 µM | –
O=C(Nc1nc(-c2ccccc2)cs1)c1ccc(C(=O)c2ccccc2)cc1 | 14.9 µM | 4.7 µM | –
Cc1nnc(-c2ccc(N3CCC(Oc4cc(F)ccc4Cl)CC3)nn2)o1 | – | < 0.01 µM | < 0.01 µM
COc1ccc2nc(NC(=O)c3cccnc3)sc2c1 | 37 µM | 1.1 µM | –
COc1ccc(C(=O)Nc2nc3cc(N)ccc3s2)cc1 | > 50 µM | > 50 µM | –
COc1ccc2nc(NC(=O)CCc3ccccc3)sc2c1 | – | > 50 µM | –
COc1ccc2nc(NC(=O)c3ccc(C(=O)N4CCN(C)CC4)cc3)sc2c1 | > 50 µM | > 50 µM | –
O=C(Nc1ncc(-c2ccccc2)s1)c1ccc(C(=O)c2ccccc2)cc1 | 5 µM | 5.8 µM | –
COc1ccc2nc(NS(=O)(=O)c3ccccc3)sc2c1 | – | > 50 µM | –
O=C(Nc1nc2ccccc2o1)c1ccc(C(=O)c2ccccc2)cc1 | – | 43 µM | –
O=C(Nc1nccs1)c1ccc(C(=O)c2ccccc2)cc1 | > 50 µM | 33 µM | –
O=C(Nc1nc2ccccc2s1)c1cccnc1 | > 50 µM | 0.26 µM | –
